# Measurements from patent US10414763B2 (CANCER RESEARCH TECHNOLOGY LIMITED, priority 2014, dated 2019).
# Molecular target: T1, full-length human PKCι (Homo sapiens, UniProt P41743)
# T1 construct: Recombinant, full-length human PKCι expressed in Sf21 insect cells is also commercially available; purchased EMD Millipore; host or cells: Sf21 insect cells (baculovirus)
# T1 sequence (P41743 1-596): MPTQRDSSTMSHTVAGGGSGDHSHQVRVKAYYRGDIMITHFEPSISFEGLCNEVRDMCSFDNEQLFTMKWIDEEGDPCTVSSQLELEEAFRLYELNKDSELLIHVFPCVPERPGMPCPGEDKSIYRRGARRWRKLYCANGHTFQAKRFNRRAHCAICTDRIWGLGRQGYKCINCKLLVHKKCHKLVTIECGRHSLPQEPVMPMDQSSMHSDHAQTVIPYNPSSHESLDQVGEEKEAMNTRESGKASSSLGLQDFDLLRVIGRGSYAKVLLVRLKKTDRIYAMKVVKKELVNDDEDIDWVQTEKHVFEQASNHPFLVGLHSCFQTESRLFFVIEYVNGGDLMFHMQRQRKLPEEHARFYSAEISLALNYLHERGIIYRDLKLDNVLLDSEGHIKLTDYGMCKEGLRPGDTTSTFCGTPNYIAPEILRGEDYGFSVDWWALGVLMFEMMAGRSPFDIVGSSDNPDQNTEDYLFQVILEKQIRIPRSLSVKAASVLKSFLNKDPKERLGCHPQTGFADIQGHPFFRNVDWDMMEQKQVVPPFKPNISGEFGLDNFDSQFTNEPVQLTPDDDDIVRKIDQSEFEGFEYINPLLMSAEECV
# Test: PKCι IC50 IMAP fluorescence polarisation assay, full-length enzyme, 150 μM ATP
# Format: biochemical
# Conditions: read-out: IC50 in IMAP assay against full length PKCi at 150 μM ATP
# How it was run: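 IMAP fluorescence polarisation kinase assay: 15 pM baculovirus-expressed human PKCiota with 100 nM FAM-pseudosubstrate peptide and 150 μM ATP, 1 h at 25 °C. IMAP detection reagent then 2 h at 25 °C before FP measurement. Inhibition referenced to no-compound and no-enzyme controls for IC50 fitting.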
row,Structure (SMILES),IC50
1,"CN(c1nc(-c2ccnc(Nc3nc(F)c(F)cc3F)c2)nc2cncc(C3CCC3)c12)C1CCNCC1(C)C (stereo not drawn) [Example 106, {5-Cyclobutyl-2-[2-(3,5,6-trifluoro-pyridin-2-ylamino)-pyridin-4-yl]-pyrido[3,4-d]pyrimidin-4-yl}-(3,3-dimethyl-piperidin-4-yl)-methyl-amine]",< 100 nM
2,"CC1(C)CNCCC1Nc1nc(-c2ccnc(Nc3cc(C#N)ccn3)c2)nc2cncc(C3CCC3)c12 (stereo not drawn) [Example 107, 2-{4-[5-Cyclobutyl-4-(3,3-dimethyl-piperidin-4-ylamino)-pyrido[3,4-d]pyrimidin-2-yl]-pyridin-2-ylamino}-isonicotinonitrile]",< 100 nM
3,"Fc1cc(F)c(Nc2cc(-c3nc(N[C@H]4[C@@H]5CNC[C@@H]54)c4c(C5CCC5)cncc4n3)ccn2)nc1F [Example 108, (1S,6S)-3-Aza-bicyclo[3.1.0]hex-6-yl-{(R)-5-cyclobutyl-2-[2-(3,5,6-trifluoro-pyridin-2-ylamino)-pyridin-4-yl]-pyrido[3,4-d]pyrimidin-4-yl}-amine]",< 100 nM
4,"Fc1ccc(F)c(Nc2cc(-c3nc(N[C@H]4[C@@H]5CNC[C@@H]54)c4c(C5CCC5)cncc4n3)ccn2)n1 [Example 109, (1S,6S)-3-Aza-bicyclo[3.1.0]hex-6-yl-{(R)-5-cyclobutyl-2-[2-(3,6-difluoro-pyridin-2-ylamino)-pyridin-4-yl]-pyrido[3,4-d]pyrimidin-4-yl}-amine]",< 100 nM
5,"CN(c1nc(-c2ccnc(Nc3ccccc3)c2)nc2cncc(C3CCC3)c12)C1CCNCC1(C)C (stereo not drawn) [Example 110, [5-Cyclobutyl-2-(2-phenylamino-pyridin-4-yl)-pyrido[3,4-d]pyrimidin-4-yl]-(3,3-dimethyl-piperidin-4-yl)-methyl-amine]",< 100 nM
6,"c1ccc(Nc2cc(-c3nc(N[C@H]4[C@@H]5CNC[C@@H]54)c4c(C5CCC5)cncc4n3)ccn2)cc1 [Example 111, (1S,6S)-3-Aza-bicyclo[3.1.0]hex-6-yl-[(R)-5-cyclobutyl-2-(2-phenylamino-pyridin-4-yl)-pyrido[3,4-d]pyrimidin-4-yl]-amine]",< 100 nM
7,"COc1nc(-c2cc3c(-c4nc(N5CCNCC5)c5c(C6CC6)cncc5n4)ccnc3[nH]2)cs1 [Example 112, 5-Cyclopropyl-2-[2-(2-methoxy-thiazol-4-yl)-1H-pyrrolo[2,3-b]pyridin-4-yl]-4-piperazin-1-yl-pyrido[3,4-d] pyrimidine]",< 100 nM
8,"Cc1cc2c(-c3nc(N(C)C4CCNCC4(C)C)c4c(C5CC5)cncc4n3)ccnc2[nH]1 (stereo not drawn) [Example 115, [5-Cyclopropyl-2-(2-methyl-1H-pyrrolo[2,3-b]pyridin-4-yl)-pyrido [3,4-d]pyrimidin-4-yl]-(3,3-dimethyl-piperidin-4-yl)-methyl-amine]",< 100 nM
9,"Cc1cc2c(-c3nc(N(C)C4CCNCC4(C)C)c4c(C5CCC5)cncc4n3)ccnc2[nH]1 (stereo not drawn) [Example 116, [5-Cyclobutyl-2-(2-methyl-1H-pyrrolo[2,3-b]pyridin-4-yl)-pyrido[3,4-d]pyrimidin-4-yl]-(3,3-dimethyl-piperidin-4-yl)-methyl-amine]",< 100 nM
10,"COc1nc(-c2cc3c(-c4nc(N5CCC6CNCCC65)c5c(C6CC6)cncc5n4)ccnc3[nH]2)cs1 (stereo not drawn) [Example 118, 5-Cyclopropyl-2-[2-(2-methoxy-thiazol-4-yl)-1H-pyrrolo[2,3-b]pyridin-4-yl]-4-(octahydro-pyrrolo[3,2-c]pyridin-1-yl)-pyrido[3,4-d]pyrimidine]",< 100 nM
11,"CSc1cc2c(-c3nc(N(C)C4CCNCC4)c4c(C5CC5)cncc4n3)ccnc2[nH]1 [Example 119, [5-Cyclopropyl-2-(2-methylsulfanyl-1H-pyrrolo[2,3-b]pyridin-4-yl)-pyrido[3,4-d]pyrimidin-4-yl]-methyl-piperidin-4-yl-amine]",< 100 nM
12,"CS(=O)(=O)c1cc2c(-c3nc(N4CCNCC4)c4c(C5CCC5)cncc4n3)ccnc2[nH]1 [Example 120, 5-Cyclobutyl-2-(2-methanesulfonyl-1H-pyrrolo[2,3-b]pyridin-4-yl)-4-piperazin-1-yl-pyrido[3,4-d]pyrimidine]",< 100 nM
